From PMC3319192 (Molecular Pharmaceutics, 2012)

Columns and labels:
[1] = biological target: T1, OATP1B1 A45G/L545S/T615I (Homo sapiens, UniProt Q9Y6L6, A45G/L545S/T615I)
T1 sequence (Q9Y6L6 1-691 A45G/L545S/T615I): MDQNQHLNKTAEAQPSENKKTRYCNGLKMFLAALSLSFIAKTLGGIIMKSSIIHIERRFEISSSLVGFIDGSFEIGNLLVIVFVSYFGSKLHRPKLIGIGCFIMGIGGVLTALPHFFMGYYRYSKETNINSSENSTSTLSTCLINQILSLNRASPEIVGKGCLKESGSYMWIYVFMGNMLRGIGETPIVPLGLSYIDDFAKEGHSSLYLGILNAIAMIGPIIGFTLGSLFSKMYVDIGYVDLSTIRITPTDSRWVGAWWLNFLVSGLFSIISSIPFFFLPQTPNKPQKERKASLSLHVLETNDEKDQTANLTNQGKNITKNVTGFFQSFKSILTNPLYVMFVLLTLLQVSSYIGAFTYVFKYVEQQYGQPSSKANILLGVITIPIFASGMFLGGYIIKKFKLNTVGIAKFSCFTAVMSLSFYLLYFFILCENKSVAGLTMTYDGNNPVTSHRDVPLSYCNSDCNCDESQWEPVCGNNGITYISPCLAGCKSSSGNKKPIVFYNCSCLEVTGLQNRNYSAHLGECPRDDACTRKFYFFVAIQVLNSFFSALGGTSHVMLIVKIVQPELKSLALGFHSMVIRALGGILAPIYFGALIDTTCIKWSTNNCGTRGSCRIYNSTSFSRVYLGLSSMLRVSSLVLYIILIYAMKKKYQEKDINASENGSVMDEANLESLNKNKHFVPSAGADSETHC

[2] = biological target: T2, wildtype OATP1B3 (Homo sapiens, UniProt Q9NPD5)
T2 sequence (Q9NPD5 1-702): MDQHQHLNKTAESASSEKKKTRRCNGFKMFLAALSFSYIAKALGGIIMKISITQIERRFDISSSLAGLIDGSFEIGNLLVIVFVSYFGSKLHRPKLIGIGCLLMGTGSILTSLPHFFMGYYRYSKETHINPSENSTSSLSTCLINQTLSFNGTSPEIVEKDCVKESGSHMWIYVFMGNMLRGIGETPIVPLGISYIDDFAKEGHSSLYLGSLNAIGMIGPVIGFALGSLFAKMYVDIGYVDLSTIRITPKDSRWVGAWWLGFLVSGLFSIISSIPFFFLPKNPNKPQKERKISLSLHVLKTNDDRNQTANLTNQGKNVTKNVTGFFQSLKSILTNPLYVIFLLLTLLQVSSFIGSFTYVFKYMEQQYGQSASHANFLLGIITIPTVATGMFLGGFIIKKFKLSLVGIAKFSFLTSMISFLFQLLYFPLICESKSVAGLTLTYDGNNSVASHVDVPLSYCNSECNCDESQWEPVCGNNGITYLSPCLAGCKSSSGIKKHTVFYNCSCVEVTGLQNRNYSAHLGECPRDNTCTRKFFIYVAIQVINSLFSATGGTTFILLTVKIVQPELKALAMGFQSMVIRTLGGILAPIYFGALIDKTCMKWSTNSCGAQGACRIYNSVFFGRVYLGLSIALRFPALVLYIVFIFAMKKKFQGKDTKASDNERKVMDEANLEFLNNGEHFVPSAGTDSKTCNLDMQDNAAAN

Substance: L-aspartyl-L-tryosyl-L-methionylgylcyl-L-tryptophyl-L-methionyl-L-aspartyl-L-phenylalaninamide hydrogen sulfate ester [CCK-8]
- Km [1]: 15.4 ± 4.2 µM
- Km [2]: 6.5 ± 2 µM
